Structures can show the parent of a compound that is named as a salt.

This assay deals with isolated guinea pig ileum (histamine spasm). Nature of the assay: histamine spasm test in isolated guinea pig ileum (Magnus), % inhibition of histamine spasm. Also on record: antihistaminic activity (mean value), starting value / increase of antihistaminic activity (mean value): concentration or dose not given beside the values. As for the experimental part: These trials were conducted in association with the histamine spasm test in isolated guinea pig ileum. Here, for example, the azelastine dosage (hydrochloride) is maintained constant and the dosage of theophylline or β-mimetic (for example reproterol) is changed and in each case intestinal spasm inhibition is determined as a % of uninhibited histamine spasm (Method of determining synergism according to Magnus).
Guinea pigs of both sexes having a mean weight of 400-600 g are stunned by a blow on the neck and exsanguinated. The lower part of the small intestine above the bottom 10 cm before the transition to the large intestine is dissected, flushed with cold Tyrode's solution and incubated in a refrigerator for 1 hour. 3-4 cm long sections are then cut and suspended in the immersion baths (Tyrode's solution^1) 37° C., carbogen gassing^2) under isotonic conditions, a tension of 2 g being applied. Following an adjustment time of 30 minutes the contraction in response to a standard spasmogen concentration of histamine (2×10^-7 mol/liter) is determined. […] The effects of the individual components and their combination are compared with one another.
1 Tyrode's solution: standardized, glucose-containing nutrient solution that has the same osmotic pressure as blood
2 Carbogen: gaseous mixture of 95% oxygen and 5% carbon dioxide.

Turning to `Cn1c(=O)c2c(ncn2CCCNCC(O)c2cc(O)cc(O)c2)n(C)c1=O` (centres unmarked) [Reproterol.HCl], the “% inhibition (histamine 2 × 10^-10 mol/ml)” value (“% inhibition” for short) is, setting by setting: (Table 2, Reproterol.HCl 0.02 μg/ml alone, group *, N = 8) 14.5 ± 16.6%; (Table 2, Reproterol.HCl 0.04 μg/ml alone, group **, N = 8) 14.5 ± 18.1%; (Table 2, Reproterol.HCl 0.06 μg/ml alone, group ***, N = 8) 48.5 ± 21.3%.
Take `Cn1c(=O)c2c(ncn2CCCNCC(O)c2cc(O)cc(O)c2)n(C)c1=O` (stereo not drawn) [reproterol, 7-{3[(β,3,5-trihydroxyphenethyl)-amino]propyl}-theophylline]: where the note is “reproterol, mean value before addition of azelastine”, the “antihistaminic activity (mean value), starting value” came out at 26%. For the setting “reproterol, on addition of azelastine”, the “increase of antihistaminic activity (mean value)” value (from here on “increase”) was found to be 38%.
Regarding `CN1CCCC(n2nc(Cc3ccc(Cl)cc3)c3ccccc3c2=O)CC1` (centres unmarked) [azelastine], the “increase” value (azelastine activity increased in the combination, partner not given) came to 26%. The “antihistaminic activity (mean value), starting value” (azelastine, mean value before increase) worked out at 36%.
For the molecule `Cn1c(=O)c2[nH]cnc2n(C)c1=O` [Theophylline], the “% inhibition” value was determined as 9.0 ± 12.8% (Table 1, Theophylline 10 μg/ml alone, group *, N = 8); 25.0 ± 15.1% (Table 1, Theophylline 20 μg/ml alone, group **, N = 4); 39.6 ± 26.9% (Table 1, Theophylline 40 μg/ml alone, group ***, N = 8); 20.6 ± 15.5% (Table 1, Theophylline 60 μg/ml alone, group ****, N = 8). Also, the “antihistaminic activity (mean value), starting value” (theophylline, mean value before addition of azelastine) amounted to 24%. Further, the “increase” value (theophylline, upon addition of azelastine) was 38%.
For the molecule `CN1CCCC(n2nc(Cc3ccc(Cl)cc3)c3ccccc3c2=O)CC1` (centres unmarked) [Azelastine.HCl], the “% inhibition” value by setting is: (Table 1, Azelastine.HCl 0.001 μg/ml alone, group ****, N = 8) 46.3 ± 34.6%; (Table 1, Azelastine.HCl 0.001 μg/ml alone, group ***, N = 8) 9.4 ± 12.4%; (Table 1, Azelastine.HCl 0.001 μg/ml alone, group **, N = 4) 49.3 ± 1.9%; (Table 1, Azelastine.HCl 0.001 μg/ml alone, group *, N = 8) 38.9 ± 19.9%; (Table 2, Azelastine.HCl 0.001 μg/ml alone, group ***, N = 8) 45.9 ± 21.1%; (Table 2, Azelastine.HCl 0.001 μg/ml alone, group **, N = 8) 26.6 ± 15.1%. In addition, the “% inhibition” value (Table 2, Azelastine.HCl 0.001 μg/ml alone, group *, N = 8) was 35.1 ± 25.7%.
